Target: T1, JAK3: Recombinant human kinase domain (Homo sapiens, UniProt P52333)
T1 construct: JAK3: Recombinant human kinase domain from Millipore (Cat #14-629) or prepared; purchased Millipore 14-629
Assay: Determination of IC50 of Janus Kinase (JAK) inhibition, radioactive end-point 33P-ATP assay, JAK3
Format: biochemical
Conditions: ATP 1.5 uM, peptide 50 uM, 20 minutes, read-out: JAK3-INHIB-DR/v1~NO ADDITIVE~Enzyme_Conc = 100

T1 sequence (P52333 822-1111 limits assumed): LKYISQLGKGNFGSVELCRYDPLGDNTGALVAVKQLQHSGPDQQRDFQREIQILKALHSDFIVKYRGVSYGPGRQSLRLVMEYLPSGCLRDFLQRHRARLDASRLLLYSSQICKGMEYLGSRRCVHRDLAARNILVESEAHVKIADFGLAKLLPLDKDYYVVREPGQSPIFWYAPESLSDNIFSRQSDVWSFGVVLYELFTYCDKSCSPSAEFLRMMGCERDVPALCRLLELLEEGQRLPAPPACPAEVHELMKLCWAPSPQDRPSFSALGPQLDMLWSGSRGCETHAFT

SMILES | IC50 [nM]
C[C@H](NC(=O)c1c[nH]c2ncc(-c3nn(C)c4ccc(Cl)cc34)nc12)C(C)(C)C [Example I-11, 2-(5-Chloro-1-methyl-1H-indazol-3-yl)-5H-pyrrolo[2,3-b]pyrazine-7-carboxylic acid ((S)-1,2,2-trimethyl-propyl)-amide] | 1.77
C[C@@H](NC(=O)c1c[nH]c2ncc(-c3nn(C)c4cc(Cl)ccc34)nc12)C(C)(C)O [Example I-12, 2-(6-Chloro-1-methyl-1H-indazol-3-yl)-5H-pyrrolo[2,3-b]pyrazine-7-carboxylic acid ((R)-2-hydroxy-1,2-dimethyl-propyl)-amide] | 19.2
C[C@@H](NC(=O)c1c[nH]c2ncc(-c3nn(C)c4cc(Cl)ccc34)nc12)C(=O)N1CC(F)(F)C1 [Example I-14, 2-(6-Chloro-1-methyl-1H-indazol-3-yl)-5H-pyrrolo[2,3-b]pyrazine-7-carboxylic acid [(R)-2-(3,3-difluoro-azetidin-1-yl)-1-methyl-2-oxo-ethyl]-amide] | 27.5
Cn1nc(-c2cnc3[nH]cc(C(=O)N[C@@H]4CCCN(S(C)(=O)=O)C4)c3n2)c2ccc(Cl)cc21 [Example I-15, 2-(6-Chloro-1-methyl-1H-indazol-3-yl)-5H-pyrrolo[2,3-b]pyrazine-7-carboxylic acid ((R)-1-methanesulfonyl-piperidin-3-yl)-amide] | 13.6
C[C@@H](NC(=O)c1c[nH]c2ncc(-c3nn(C)c4cc(Cl)ccc34)nc12)C1CC1 [Example I-16, 2-(6-Chloro-1-methyl-1H-indazol-3-yl)-5H-pyrrolo[2,3-b]pyrazine-7-carboxylic acid ((R)-1-cyclopropyl-ethyl)-amide] | 4.81
C[C@@H](NC(=O)c1c[nH]c2ncc(-c3n[nH]c4cc(Cl)ccc34)nc12)C(=O)N1CC(C#N)C1 [Example I-23, 2-(6-Chloro-1H-indazol-3-yl)-5H-pyrrolo[2,3-b]pyrazine-7-carboxylic acid [(R)-2-(3-cyano-azetidin-1-yl)-1-methyl-2-oxo-ethyl]-amide] | 0.59
COCCn1nc(-c2cnc3[nH]cc(C(=O)N[C@H](C)C(=O)N4CC(C#N)C4)c3n2)c2ccc(Cl)cc21 [Example I-24, 2-[6-Chloro-1-(2-methoxy-ethyl)-1H-indazol-3-yl]-5H-pyrrolo[2,3-b]pyrazine-7-carboxylic acid [(R)-2-(3-cyano-azetidin-1-yl)-1-methyl-2-oxo-ethyl]-amide] | 2.34
C[C@@H](NC(=O)c1c[nH]c2ncc(-c3nn(C)c4cc(Cl)ccc34)nc12)C(=O)N1CC2(COC2)C1 [Example I-27, 2-(6-Chloro-1-methyl-1H-indazol-3-yl)-5H-pyrrolo[2,3-b]pyrazine-7-carboxylic acid [(R)-1-methyl-2-(2-oxa-6-aza-spiro[3.3]hept-6-yl)-2-oxo-ethyl]-amide] | 20.5
C[C@@H](NC(=O)c1c[nH]c2ncc(-c3nc(CO)n4cc(F)ccc34)nc12)C(=O)N1CC(C#N)C1 [Example I-35, 2-(6-Fluoro-3-hydroxymethyl-imidazo[1,5-a]pyridin-1-yl)-5H-pyrrolo[2,3-b]pyradine-7-carboxylic acid [(R)-2-(3-cyano-azetidin-1-yl)-1-methyl-2-oxo-ethyl]-amide] | 0.33
COC[C@H](C)NC(=O)c1c[nH]c2ncc(-c3ncn4cc(F)ccc34)nc12 [Example I-41, 2-(6-Fluoro-imidazo[1,5-a]pyridin-1-yl)-5H-pyrrolo[2,3-b]pyrazine-7-carboxylic acid ((S)-2-methoxy-1-methyl-ethyl)-amide] | 0.375
C[C@@H](NC(=O)c1c[nH]c2ncc(-c3nc(S(C)(=O)=O)n4cc(F)ccc34)nc12)C(=O)N1CC(C#N)C1 [Example I-42, 2-(6-Fluoro-3-methanesulfonyl-imidazo[1,5-a]pyridin-1-yl)-5H-pyrrolo[2,3-b]pyrazine-7-carboxylic acid [(R)-2-(3-cyano-azetidin-1-yl)-1-methyl-2-oxo-ethyl]-amide] | 1.25
CC(NC(=O)c1c[nH]c2ncc(-c3nn(C)c4cc(F)ccc34)nc12)c1ncco1 (stereo not shown) [Example I-49, 2-(6-Fluoro-1-methyl-1H-indazol-3-yl)-5H-pyrrolo[2,3-b]pyrazine-7-carboxylic acid (1-oxazol-2-yl-ethyl)-amide] | 5.66
C[C@@H](NC(=O)c1c[nH]c2ncc(-c3nn(C)c4cc(F)ccc34)nc12)c1ncco1 [Example I-50, 2-(6-Fluoro-1-methyl-1H-indazol-3-yl)-5H-pyrrolo[2,3-b]pyrazine-7-carboxylic acid ((R)-1-oxazol-2-yl-ethyl)-amide] | 2.63
C[C@H](NC(=O)c1c[nH]c2ncc(-c3nn(C)c4cc(F)ccc34)nc12)c1ncco1 [Example I-51, 2-(6-Fluoro-1-methyl-1H-indazol-3-yl)-5H-pyrrolo[2,3-b]pyrazine-7-carboxylic acid ((S)-1-oxazol-2-yl-ethyl)-amide] | 9.11
CC(NC(=O)c1c[nH]c2ncc(-c3nn(C)c4cc(F)ccc34)nc12)c1ccon1 (stereo not shown) [Example I-53, 2-(6-Fluoro-1-methyl-1H-indazol-3-yl)-5H-pyrrolo[2,3-b]pyrazine-7-carboxylic acid (1-isoxazol-3-yl-ethyl)-amide] | 7.07

More lines, now with the values ahead:

IC50 [nM] | SMILES
0.575 | Cn1nc(-c2cnc3[nH]cc(C(=O)N[C@@H](C(=O)N4CCC(C#N)CC4)C4CC4)c3n2)c2ccc(Cl)cc21 [Example I-2, 2-(6-Chloro-1-methyl-1H-indazol-3-yl)-5H-pyrrolo[2,3-b]pyrazine-7-carboxylic acid [(R)-2-(4-cyano-piperidin-1-yl)-1-cyclopropyl-2-oxo-ethyl]-amide]
1.06 | Cn1nc(-c2cnc3[nH]cc(C(=O)N[C@@H](C(=O)N4CCC(C#N)CC4)C4CC4)c3n2)c2cc(Cl)ccc21 [Example I-3, 2-(5-Chloro-1-methyl-1H-indazol-3-yl)-5H-pyrrolo[2,3-b]pyrazine-7-carboxylic acid [(R)-2-(4-cyano-piperidin-1-yl)-1-cyclopropyl-2-oxo-ethyl]-amide]
1.23 | C[C@@H](NC(=O)c1c[nH]c2ncc(-c3nn(C)c4cc(Cl)c(Cl)cc34)nc12)C(=O)N1CC(C#N)C1 [Example I-6, 2-(5,6-Dichloro-1-methyl-1H-indazol-3-yl)-5H-pyrrolo[2,3-b]pyrazine-7-carboxylic acid [(R)-2-(3-cyano-azetidin-1-yl)-1-methyl-2-oxo-ethyl]-amide]
2.83 | Cn1nc(-c2cnc3[nH]cc(C(=O)N[C@@H](C(=O)N4CCC(C#N)CC4)C(C)(C)C)c3n2)c2cc(Cl)ccc21 [Example I-8, 2-(5-Chloro-1-methyl-1H-indazol-3-yl)-5H-pyrrolo[2,3-b]pyrazine-7-carboxylic acid [(R)-1-(4-cyano-piperidine-1-carbonyl)-2,2-dimethyl-propyl]-amide]
4.01 | Cn1nc(-c2cnc3[nH]cc(C(=O)N[C@@H](C(=O)N4CCC(C#N)CC4)C4CC4)c3n2)c2ccc(C3CC3)cc21 [Example I-9, 2-(6-Cyclopropyl-1-methyl-1H-indazol-3-yl)-5H-pyrrolo[2,3-b]pyrazine-7-carboxylic acid [(R)-2-(4-cyano-piperidin-1-yl)-1-cyclopropyl-2-oxo-ethyl]-amide]
1.51 | Cn1nc(-c2cnc3[nH]cc(C(=O)N[C@@H](C(=O)N4CCC(C#N)CC4)C4CC4)c3n2)c2c1CCCC2 [Example I-10, 2-(1-Methyl-4,5,6,7-tetrahydro-1H-indazol-3-yl)-5H-pyrrolo[2,3-b]pyrazine-7-carboxylic acid [(R)-2-(4-cyano-piperidin-1-yl)-1-cyclopropyl-2-oxo-ethyl]-amide]
31.1 | C[C@@H](NC(=O)c1c[nH]c2ncc(-c3nn(C)c4c3CC(C)(C)CC4)nc12)C(=O)N1CC(C#N)C1 [Example I-13]
1.15 | C[C@@H](NC(=O)c1c[nH]c2ncc(-c3nn(C)c4cc(C(F)(F)F)ccc34)nc12)C(=O)N1CC(C#N)C1 [Example I-18, 2-(1-Methyl-6-trifluoromethyl-1H-indazol-3-yl)-5H-pyrrolo[2,3-b]pyrazine-7-carboxylic acid [(R)-2-(3-cyano-azetidin-1-yl)-1-methyl-2-oxo-ethyl]-amide]
2.12 | Cn1nc(-c2cnc3[nH]cc(C(=O)N[C@@H](C(=O)N4CCC(C#N)CC4)C(C)(C)C)c3n2)c2ccc(Cl)cc21 [Example I-19, 2-(6-Chloro-1-methyl-1H-indazol-3-yl)-5H-pyrrolo[2,3-b]pyrazine-7-carboxylic acid [(R)-1-(4-cyano-piperidine-1-carbonyl)-2,2-dimethyl-propyl]-amide]
5.7 | C[C@@H](NC(=O)c1c[nH]c2ncc(-c3nn(C)c4c3CCCC4)nc12)C(=O)N1CC(C#N)C1 [Example I-26, 2-(1-Methyl-4,5,6,7-tetrahydro-1H-indazol-3-yl)-5H-pyrrolo[2,3-b]pyrazine-7-carboxylic acid [(R)-2-(3-cyano-azetidin-1-yl)-1-methyl-2-oxo-ethyl]-amide]
84.6 | C[C@@H](NC(=O)c1c[nH]c2ncc(-c3nn(C)c4cc(Cl)ccc34)nc12)C(=O)N1CCOCC1 [Example I-28, 2-(6-Chloro-1-methyl-1H-indazol-3-yl)-5H-pyrrolo[2,3-b]pyrazine-7-carboxylic acid ((R)-1-methyl-2-morpholin-4-yl-2-oxo-ethyl)-amide]
1.45 | C[C@@H](NC(=O)c1c[nH]c2ncc(-c3nn(C)c4cc(Cl)c(F)cc34)nc12)C(=O)N1CC(C#N)C1 [Example I-30, 2-(6-Chloro-5-fluoro-1-methyl-1H-indazol-3-yl)-5H-pyrrolo[2,3-b]pyrazine-7-carboxylic acid [(R)-2-(3-cyano-azetidin-1-yl)-1-methyl-2-oxo-ethyl]-amide]
1.27 | Cc1nc(-c2cnc3[nH]cc(C(=O)N[C@H](C)C(=O)N4CC(C#N)C4)c3n2)c2ccc(F)cn12 [Example I-34, 2-(6-Fluoro-3-methyl-imidazo[1,5-a]pyridin-1-yl)-5H-pyrrolo[2,3-b]pyrazine-7-carboxylic acid [(R)-2-(3-cyano-azetidin-1-yl)-1-methyl-2-oxo-ethyl]-amide]
